This note sets out measurements from PMC10447463, “Data-mining unveils structure–property–activity correlation of viral infectivity enhancing self-assembling peptides” (Nature Communications, 2023).

Read-outs that look alike come from different tables or passages of the source.

Data set [1] is described as follows: Turbidity, derived count rate of scattered light. The data set is classed as physicochemical. As to conditions: for Count Rate / kcps: derived count rate of scattered light at 633 nm, 173°, from zeta-potential measurement, 0.1 mg/mL in 1 mM KCl after 1 d at 1 mg/mL in PBS, turbidity / microscopic aggregation, mean of triplicate. The essentials: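 Samples: 1 mg/mL in PBS pH 7.4 (from DMSO), 1 d at RT, then diluted in 1 mM KCl immediately before measurement. Triplicates, two independent runs averaged.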

For data set [2], the system named is HIV-1 infection of TZM-bl cells. Nature of the data set: HIV-1 infectivity enhancement assay, β-galactosidase luminescence. The class given is cell-based. To be noted: for Rel-EFC / Log10 Infection Rel EFC: 1.3 µM peptide; for Rel-EFC: infection relative to EF-C (QCKIKQIINMWQ = 1); for Log10 Infection Rel EFC: log10 of infection relative to EF-C; for Log Infectivity: Fig. S7 panel A (plotted against β-sheet content), Log10 infection relative to EF-C, asymmetric std dev errors; for Log Infectivity / Abs. Inf.: TZM-bl cells; for Log10 Infection Rel EF-C: HIV-1 infection of TZM-bl cells; for Abs. Inf.: absolute HIV-1 infection signal, β-galactosidase luminescence; for Log10 of Rel to EFC (Feb2021): Log10 of infection relative to EF-C.

Data set [3] in a line: β-sheet content by ATR-FT-IR. The class given is physicochemical. To be noted: for b -sheet / %: Fig. S7 panel A, β-sheet content by ATR-FT-IR. How it is done:
For ATR FT–IR spectroscopy measurements, 200 µL of the respective 1 mg/mL PNF solution was lyophilized and the resulting powder used for measurement. All spectra were recorded on a Bruker Tensor 27 spectrometer with a diamond crystal as ATR element (PIKE MiracleTM, spectral resolution 2 cm^-1). Every sample was measured with 64 scans. Data were analyzed with OriginLab software and calculation of β–sheet content was conducted according to a previous report. TEM. For TEM measurements 5 µL of PNF fibrils (1 mg/mL) were placed on copper grids coated with carbon and formvar layer (300 mesh, Plano GmbH). After 10 min incubation time, the grids were staining with 4% uranyl acetate solution for 2.5 min and washed with water. Measurements were performed on a Jeol 1400 electron microscope with 120 kV acceleration voltage. CR Assay. For the determination of the amount of peptide monomer converting into nanostructures the amine reactive dye fluorescamine was used analogous to a previous reported protocol. Briefly, 100 µL of the preformed PNF solution was centrifuged in a Vivaspin 500 tube (3 kDa MWCO) to separate fibers from free peptide monomer (16200 x g, 4 °C, 45 min). The filtrate and 100 μL of the non-filtered PNF sample were lyophilized and dissolved in 30 μL DMSO. 10 μL of the filtrate and non-filtered DMSO samples were submitted in a black UV Star® 384 microliter well–plates (Greiner bio–one) and 3 μL of the fluorescamine solution (10 mg/mL, DMSO) was added to measure the fluorescence enhancement. After 20 min of incubation at RT, fluorescence was recorded on an Infinite® M1000 PRO microplate reader (Tecan) at λem = 470 nm upon excitation at λex = 365 nm with 10 nm bandwidths and multiple reads per well (3×3). Measurements were repeated in triplicates and averaged with standard deviation. All values were calculated as n-fold fluorescence enhancement (DMSO only as a reference was set to 1). The conversion rate CR was defined according to the equation Eq. (3).3 CR=100−100×fluorescenceintensityfiltrate/fluorescenceintensityoriginal[%]

Data set [4] in a line: Zeta-potential measurement. The data set is classed as physicochemical. The essentials:
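Aggregates: 1 mg/mL peptide, PBS pH 7.4, 1 d RT; dilute in KCl (1 mM, aq); measure mobility → zeta via Smoluchowski.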

The mark [5] stands for this setting: Log10 of derived count rate of scattered light (turbidity).
The mark [6] stands for this setting: log10 of derived count rate of scattered light (turbidity).
Where [7] appears, read: turbidity, Log10 of derived count rate of scattered light, Figure 3A source data.
The mark [8] stands for this setting: Log10 of infection rate relative to EF-C, Figure 3A source data.
Setting [9] is: infection rate relative to EF-C, log10, data of Figure 2D.
The mark [10] stands for this setting: infection rate relative to EF-C, log10, source data of Figure 2C.
Setting [11] is: zeta-potential of peptide, source data of Figure 2C.
Setting [12] is: zeta-potential of the peptide assemblies, mean, Figure 3A source data.
The mark [13] stands for this setting: zeta potential of peptide assemblies.

Regarding HHHHKAKAKAKAWWWW, the “Log10 Count Rate” value in data set [1] (setting [5]), in data set [1] (setting [6]) and in data set [1] (setting [7]) was 2.8188 throughout. In addition, in data set [1], the “Count Rate / kcps” value came out at 659 kcps. The Rel-EFC in data set [2] was 0,09. Also, the “Log10 Infection Rel EFC” value in data set [2] is listed as -1,05. Besides, the “Log Infectivity” value in data set [2] is reported as -1.048. The entries for the “Log10 Infection Rel EF-C” value in data set [2] (setting [8]), in data set [2] (setting [9]) and in data set [2] (setting [10]) were -1.05, -1.048 and -1.048, respectively. Besides, the “Abs. Inf.” value in data set [2] was 3233. Also, the “b -sheet / %” value in data set [3] worked out at 40.26%. Besides, the Zeta-Pot. in data set [4] is 17.4. Also, the results for the “Zeta-Potential / mV” value in data set [4] (setting [11]) and in data set [4] (setting [12]) were 12.25 mV and 17.4 mV, respectively.

As for HHHHKAKAKAKAYYYY, the “Log10 Count Rate” value in data set [1] (setting [5]), in data set [1] (setting [6]) and in data set [1] (setting [7]) was 2.382 in each case. Besides, the “Count Rate / kcps” value in data set [1] worked out at 241 kcps. Further, in data set [2], the Rel-EFC is 0,01. In data set [2], the “Log10 Infection Rel EFC” value is reported as -1,88. For the same sequence, in data set [2], the “Log Infectivity” value is listed as -1.883. Further, the results for the “Log10 Infection Rel EF-C” value in data set [2] (setting [8]), in data set [2] (setting [9]) and in data set [2] (setting [10]) were -1.88, -1.883 and -1.883, respectively. In addition, the “b -sheet / %” value in data set [3] came out at 44.29%. In addition, the Zeta-Pot. in data set [4] (setting [13]) was found to be 7.03. In addition, the “Zeta-Potential / mV” value in data set [4] (setting [11]) came out at 4.787 mV; in data set [4] (setting [12]), 7.03 mV.

Consider HHHHKIKIKIKIYYYY, for which the “Log10 Count Rate” value in data set [1] (setting [5]), in data set [1] (setting [6]), in data set [1] (logarithm of count rate in kcps) and in data set [1] (setting [7]) was 4.107 in each case. Besides, the “Count Rate / kcps” value in data set [1] is 12793 kcps. For the same sequence, the “Zeta Count Rate” value in data set [1] (peptides with TEM 2cat 0) stood at 12793 kcp. Besides, in data set [2], the Rel-EFC is reported as 0,68. The “Log10 Infection Rel EFC” value in data set [2] is given as -0,17. In addition, in data set [2], the “Log Infectivity” value is on record as -0.1685. Further, the “Log10 Infection Rel EF-C” value in data set [2] (setting [8]) is -0.17; in data set [2] (setting [9]), -0.1685; in data set [2] (setting [10]), -0.1685. In addition, the “Log10 of Rel to EFC (Feb2021)” value in data set [2] (all peptides of FigS16) is listed as -0.17; in data set [2] (second listing, peptides with TEM 2cat 0), -0.17. Also, the “Abs. Infection at 0.26 µM” value in data set [2] (peptide 0.26 µM, mean of n = 3, Figure 4A) stood at 8963. For the same sequence, in data set [2] (peptide 0.26 µM, replicate 1, absolute infection signal, Figure 4A), the “Infect 1 0.26 µM” value worked out at 7733.33. Further, in data set [2] (peptide 0.26 µM, replicate 2, absolute infection signal, Figure 4A), the “Infect 2 0.26 µM” value was 6433.33. Moreover, in data set [2] (peptide 0.26 µM, replicate 3, absolute infection signal, Figure 4A), the “Infect 3 0.26 µM” value was 12723.33. In data set [2] (peptide 1.3 µM, mean of n = 3, Figure 4A), the “Abs. Infection at 1.3 µM” value is given as 20713.33333. In addition, in data set [2] (peptide 1.3 µM, replicate 1, absolute infection signal, Figure 4A), the “Infect 1 .3 µM” value is given as 24723.33. Moreover, the “Infect 2 1.3µM” value in data set [2] (peptide 1.3 µM, replicate 2, absolute infection signal, Figure 4A) is on record as 15203.33. For the same sequence, the “Infect 3 1.3 µM” value in data set [2] (peptide 1.3 µM, replicate 3, absolute infection signal, Figure 4A) is recorded as 22213.33. Moreover, in data set [3], the “b -sheet / %” value is 53.27%. This sequence displayed a beta sheet in data set [3] (peptides with TEM 2cat 0) of 53. The Zeta-Pot. in data set [4] (setting [13]) is 13.2. Also, the “Zeta-Potential / mV” value came out at 12.88 mV in data set [4] (setting [11]) and 13.2 mV in data set [4] (setting [12]).

As to IKVAVKIKIQINM, the “Log10 Count Rate” value in data set [1] (setting [5]), in data set [1] (setting [6]) and in data set [1] (setting [7]) was 3.686 in each case. The “Count Rate / kcps” value in data set [1] worked out at 4848 kcps. In addition, in data set [2], the Rel-EFC is 0,5. The “Log10 Infection Rel EFC” value in data set [2] was -0,3. Further, the “Log Infectivity” value in data set [2] is recorded as -0.3046. For the same sequence, the “Log10 Infection Rel EF-C” value is given as -0.3 in data set [2] (setting [8]), -0.3046 in data set [2] (setting [9]) and -0.3046 in data set [2] (setting [10]). Also, the “Log10 of Rel to EFC (Feb2021)” value in data set [2] (all peptides of FigS16) was -0.3. For the same sequence, the “Abs. Inf.” value in data set [2] came to 17920. Further, the “b -sheet / %” value in data set [3] worked out at 58.1%. In addition, in data set [4], the Zeta-Pot. came to 14.5. Moreover, the “Zeta-Potential / mV” value is 14.18 mV in data set [4] (setting [11]) and 14.5 mV in data set [4] (setting [12]).

Consider ILKNLSRSRKIKIQIC, for which the “Log10 Count Rate” value in data set [1] (setting [5]), in data set [1] (setting [6]) and in data set [1] (setting [7]) was 3.379 each time. The “Count Rate / kcps” value in data set [1] stood at 2392 kcps. The Rel-EFC in data set [2] was 0,34. The “Log10 Infection Rel EFC” value in data set [2] is on record as -0,47. For the same sequence, in data set [2], the “Log Infectivity” value was -0.4741. For the same sequence, the “Log10 Infection Rel EF-C” value in data set [2] (setting [8]) is -0.47; in data set [2] (setting [9]), -0.4741; in data set [2] (setting [10]), -0.4741. For the same sequence, the “Log10 of Rel to EFC (Feb2021)” value in data set [2] (all peptides of FigS16) is -0.47. In addition, the “b -sheet / %” value in data set [3] came out at 37.6%. The Zeta-Pot. in data set [4] (setting [13]) was 18. Further, the results for the “Zeta-Potential / mV” value in data set [4] (setting [11]) and in data set [4] (setting [12]) were 19.25 mV and 18 mV, respectively.

Take ILKNLSRSRKIKIQINMWQ: the “Log10 Count Rate” value in data set [1] (setting [5]), in data set [1] (setting [6]) and in data set [1] (setting [7]) was 2.486 in each case. In data set [1], the “Count Rate / kcps” value was determined as 307 kcps. The Rel-EFC in data set [2] is recorded as 0,32. Further, the “Log10 Infection Rel EFC” value in data set [2] is -0,49. In addition, the “Log Infectivity” value in data set [2] is -0.4939. For the same sequence, the “Log10 Infection Rel EF-C” value in data set [2] (setting [8]) is listed as -0.49; in data set [2] (setting [9]), -0.4939; in data set [2] (setting [10]), -0.4939. Also, the “Log10 of Rel to EFC (Feb2021)” value in data set [2] (all peptides of FigS16) was -0.49. Further, the “Abs. Inf.” value in data set [2] came to 1797. Also, the “b -sheet / %” value in data set [3] stood at 39.13%. The Zeta-Pot. in data set [4] was 19.2. Besides, the “Zeta-Potential / mV” value stood at 17.9 mV in data set [4] (setting [11]) and 19.2 mV in data set [4] (setting [12]).

With KAKAKAQA, the “Log10 Count Rate” value in data set [1] (setting [5]), in data set [1] (setting [6]) and in data set [1] (setting [7]) was 1.886 each time. Besides, in data set [1], the “Count Rate / kcps” value came out at 77 kcps. In addition, the Rel-EFC in data set [2] was 0,01. In addition, the “Log10 Infection Rel EFC” value in data set [2] is given as -2,06. For the same sequence, the “Log Infectivity” value in data set [2] is on record as -2.06. In addition, the “Log10 Infection Rel EF-C” value in data set [2] (setting [8]), in data set [2] (setting [9]) and in data set [2] (setting [10]) was -2.06 in each case. For the same sequence, the “b -sheet / %” value in data set [3] was determined as 39.62%. Further, in data set [4] (setting [13]), the Zeta-Pot. is recorded as -9.01. Also, the “Zeta-Potential / mV” value in data set [4] (setting [11]) was -5.297 mV; in data set [4] (setting [12]), -9.01 mV.
